In PubChem BioAssay (NCI):
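Assay format: 96-well plates, 48-hour exposure. GI50: concentration for 50% inhibition of growth. TGI: concentration producing complete growth inhibition.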

Key:
Assay in all cases: inhibition of tumour cell growth, NCI panel, 48 h
[1] = system: ACHN renal
[2] = system: CCRF-CEM leukemia
[3] = system: COLO 205 colon
[4] = system: DU-145 prostate
[5] = system: HCC-2998 colon
[6] = system: HOP-62 NSCLC
[7] = system: HS 578T breast
[8] = system: MALME-3M melanoma
[9] = system: UACC-257 melanoma
[10] = system: UACC-62 melanoma

| Compound | GI50 [1] [µM] | TGI [1] [µM] | GI50 [2] [µM] | TGI [2] [µM] | GI50 [3] [µM] | TGI [3] [µM] | GI50 [4] [µM] | TGI [4] [µM] | GI50 [5] [µM] | TGI [5] [µM] | GI50 [6] [µM] | TGI [6] [µM] | GI50 [7] [µM] | TGI [7] [µM] | GI50 [8] [µM] | TGI [8] [µM] | GI50 [9] [µM] | TGI [9] [µM] | GI50 [10] [µM] | TGI [10] [µM] |
| --- | --- | --- | --- | --- | --- | --- | --- | --- | --- | --- | --- | --- | --- | --- | --- | --- | --- | --- | --- | --- |
| COc1ccc2c(c1)c(CC(=O)[Se]C)c(C)n2C(=O)c1ccc(Cl)cc1 | > 0.56 | > 1 | > 0.391 | > 1 | > 0.608 | > 1 | > 0.423 | > 0.807 | > 0.673 | > 1 | > 0.306 | > 0.615 | > 0.297 | > 0.942 | > 0.346 | > 0.582 | > 0.352 | > 0.689 | > 0.445 | > 1 |
| CC(C)CCCC(C)[C@H]1CCC2[C@@H]3CCC4Cc5nc6c(nc5C[C@]4(C)C3CC[C@@]21C)CC1CC[C@@H]2C(CC[C@@]3(C)C2CC[C@@H]3C(C)CCCC(C)C)[C@@]1(C)C6 (stereo partly drawn) |  | > 100 |  | > 100 |  | > 100 |  | > 100 |  |  |  | > 100 |  | > 100 |  | > 100 |  | > 100 |  | > 100 |
| COc1cc2c(cc1OC)[C@H](C)N1CCc3cc(OC)c(OC)cc3[C@@H]1C2 |  | > 100 |  | > 100 |  | > 100 |  | > 100 |  | > 100 |  |  |  | > 100 |  | > 100 |  | > 100 |  | > 100 |
| CC1=C(C(=O)Nc2ccc3n[nH]c(C)c3c2)C(c2ccc(C(F)(F)F)cc2)CC(=O)N1 (stereo not drawn) | > 25 | > 25 | 11.8 | > 25 | 7.64 | > 19.1 | > 25 | > 25 | > 25 | > 25 | 4.4 | > 25 | 0.305 | 19.5 | 13.6 | > 25 | > 25 | > 25 | 16 | > 25 |
| O=C1Nc2ccc(Br)cc2C1=Nc1cccnc1 |  | 39.3 |  | 57.4 |  | > 100 |  | > 100 |  | 40 |  | 74.2 |  | 60.5 |  | 46.8 |  | 55.9 |  | 35 |
| C#CC#CC#CC#CC#CC#CC#CC#CCC1OCC(COC(=O)O[C@@H](C(=O)O[C@H]2C[C@@]3(O)[C@@H](OC(=O)c4ccccc4)[C@@H]4[C@]5(OC(C)=O)CO[C@@H]5C[C@H](O)[C@@]4(C)C(=O)[C@H](OC(C)=O)C(=C2C)C3(C)C)[C@@H](NC(=O)c2ccccc2)c2ccccc2)O1 (stereo partly drawn) | > 24.7 | > 33.3 | 0.191 | > 33.3 | 0.103 | > 26.8 | 0.0961 |  | 0.287 | > 33.3 | 0.775 | > 33.3 | 0.108 |  | 0.28 | > 33.3 | > 8.95 | > 33.3 | 0.511 | > 33.3 |
| COc1cc(OC)c2nc(C)c3c(c2c1)SCC3 |  | 34.5 |  | > 100 |  | > 100 |  | > 100 |  | > 100 |  | 34.6 |  | 57.7 |  | 63.8 |  | 78.3 |  | 56.4 |
| CC1CCC/C1=C(/I)C(=O)c1ccccc1 (stereo not drawn) |  | > 100 |  | 75.5 |  | > 100 |  | > 100 |  | > 100 |  | > 100 |  | > 100 |  | > 100 |  | > 100 |  | > 100 |
| O=C(Nc1ccc(Br)cc1F)c1cc(I)ccc1O |  |  | 3.58 | > 100 | 12.8 | 30.8 | 3.89 | > 100 | 3.14 | 12.7 | 2.27 | 8.15 | 2.43 | 9.1 | 2.07 | 5.56 | 2.43 | 6.88 | 1.37 | 4.43 |
| CC1=C(c2cccc(O)c2)[C@H](c2ccc(OCCN3CC(CF)C3)cc2)Oc2ccc(O)cc21 | 6.2 | 18.6 | 4.72 | 21.2 | 6.34 | 23.1 | 4.18 | 15 | 3.84 | 15.4 | 11 | 27.5 | 5.12 | 26.4 | 3.23 | 13.3 | 4.98 | 18.2 | 10.4 | 22.6 |
| Cc1cc2c(C(C)C)c(O)c(O)cc2c(O)c1-c1c(C)cc2c(C(C)C)c(O)c(O)cc2c1O | 8.66 | 21.9 | 3.91 | 21.5 | 3.84 | 15 | 22 | 78 | 16.4 | 30 | 13 | 30.2 | 19.3 | 47.6 | 10.9 | 24.6 | 26.6 | 65 | 2.32 | 14.3 |
| O=C(Nc1cccc(-n2cc(-c3ccncc3)c(-c3ccc(Cl)c(O)c3)n2)c1)Nc1cc(C(F)(F)F)cc(C(F)(F)F)c1 | 0.669 | 4.2 | 0.789 | 6.78 | 0.896 | 1.71 | 0.963 | 2.94 | 0.977 | 2.04 | 0.902 | 1.81 | 1.2 | 4.01 | 0.831 | 2.24 | 0.89 | 2.24 | 0.766 | 1.96 |
| Cc1cc(NCCCN(C)C)c2ccc3c(ccc4c(NCCCN(C)C)cc(C)nc43)c2n1 | 0.238 | 0.744 | 0.158 | 0.478 | 0.183 | 0.408 | 0.159 | 0.436 | 0.134 | 0.323 | 0.196 | 0.489 | 0.197 | 0.667 | 0.244 | 0.894 | 0.199 | 0.499 | 0.283 | 0.93 |
| C=C(C(N)=O)c1ccc([N+](=O)[O-])o1 |  | 12.2 |  | 18.9 |  | 12.9 |  | 23.4 |  | 33.6 |  | 46.8 |  | 77.1 |  | 5.51 |  | 21.7 |  | 21.4 |
| O=C(C/C(=N/O)C(=O)NC1=C(Cl)C(=O)c2ccccc2C1=O)CC(c1ccccc1)c1c(O)c2ccccc2oc1=O (stereo not drawn) |  | 65.7 |  | > 100 |  | 33.7 |  | 11.2 |  | 25.6 |  |  |  | 50.6 |  | 4.55 |  | > 100 |  | > 100 |
